Laboratory results published in ChEMBL document CHEMBL1201862, “PubChem BioAssay data set” (2004).
Where a name gives a salt, the structure may show the parent alone.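 Method: 48-hour compound exposure of cells in 96-well plates, five concentrations, linear interpolation of endpoints. GI50: concentration for 50% inhibition of growth.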 Calls of active or inactive are those of the source. No stated cut-off is given here; in the data, active = GI50 up to about 1.1 µM and inactive = higher.

Legend:
Test in all cases: inhibition of tumour cell growth, NCI panel, 48 h
CCRF-CEM = tested on: CCRF-CEM
NCI/ADR-RES = tested on: NCI/ADR-RES
MCF7 = tested on: MCF7
IGROV-1 = tested on: IGROV-1
Malme-3M = tested on: Malme-3M
T47D = tested on: T47D
HT-29 = tested on: HT-29
SW-620 = tested on: SW-620
OVCAR-8 = tested on: OVCAR-8
A549 = tested on: A549
U-251 = tested on: U-251
RPMI-8226 = tested on: RPMI-8226
HOP-92 = tested on: HOP-92
SK-MEL-28 = tested on: SK-MEL-28
HCT-15 = tested on: HCT-15
MDA-MB-435 = tested on: MDA-MB-435
BT-549 = tested on: BT-549
M14 = tested on: M14
SK-MEL-2 = tested on: SK-MEL-2
NCI-H522 = tested on: NCI-H522

Row | SMILES | GI50 (CCRF-CEM) | GI50 (NCI/ADR-RES) | GI50 (MCF7) | GI50 (IGROV-1) | GI50 (Malme-3M) | GI50 (T47D) | GI50 (HT-29) | GI50 (SW-620) | GI50 (OVCAR-8) | GI50 (A549) | GI50 (U-251) | GI50 (RPMI-8226) | GI50 (HOP-92) | GI50 (SK-MEL-28) | GI50 (HCT-15) [µM] | GI50 (MDA-MB-435) | GI50 (BT-549) | GI50 (M14) | GI50 (SK-MEL-2) | GI50 (NCI-H522)
1 | COc1c2ccoc2cc2oc(=O)ccc12 [BERGAPTEN] | > 100 µM (inactive) | > 100 µM (inactive) | > 100 µM (inactive) | > 100 µM (inactive) | > 100 µM (inactive) | > 100 µM (inactive) | > 100 µM (inactive) | > 100 µM (inactive) | > 100 µM (inactive) | > 100 µM (inactive) | 67.9 µM (inactive) | > 100 µM (inactive) | > 100 µM (inactive) | > 100 µM (inactive) | > 100 | > 100 µM (inactive) | 49 µM (inactive) | > 100 µM (inactive) | > 100 µM (inactive) | > 100 µM (inactive)
2 | COC(=O)C(CCSc1ccccc1)C(=O)OC | > 100 µM (inactive) | > 100 µM (inactive) | > 100 µM (inactive) | > 100 µM (inactive) | 10.8 µM (inactive) | > 100 µM (inactive) | > 100 µM (inactive) | > 100 µM (inactive) | > 100 µM (inactive) | > 100 µM (inactive) | > 100 µM (inactive) | > 100 µM (inactive) | > 100 µM (inactive) | > 100 µM (inactive) | > 100 | > 100 µM (inactive) | > 100 µM (inactive) | > 100 µM (inactive) | > 100 µM (inactive) | 93.8 µM (inactive)
3 | CS(=O)(=O)Nc1ccc2c(c1)N(S(C)(=O)=O)CC2CCl (stereo not given) | > 100 µM (inactive) | > 100 µM (inactive) | > 100 µM (inactive) | > 100 µM (inactive) | > 100 µM (inactive) | > 100 µM (inactive) | > 100 µM (inactive) | > 100 µM (inactive) | > 100 µM (inactive) | > 100 µM (inactive) | > 100 µM (inactive) | > 100 µM (inactive) | > 100 µM (inactive) | > 100 µM (inactive) | > 100 | > 100 µM (inactive) | > 100 µM (inactive) | – | > 100 µM (inactive) | > 100 µM (inactive)
4 | COc1cc(-c2ccccc2N)c2cccnc2c1OC | 3.56 µM (inactive) | 10.4 µM (inactive) | 3.84 µM (inactive) | 2.97 µM (inactive) | 14.9 µM (inactive) | 4.04 µM (inactive) | 0.74 µM (active) | 2.92 µM (inactive) | – | 3.69 µM (inactive) | 4.21 µM (inactive) | 3.4 µM (inactive) | 9.53 µM (inactive) | 17.9 µM (inactive) | 3.58 | 8.17 µM (inactive) | 9.14 µM (inactive) | 6.28 µM (inactive) | 12.9 µM (inactive) | 3.59 µM (inactive)
5 | NCCSSCCN [CYSTAMINE HYDROCHLORIDE] | 56.1 µM (inactive) | > 100 µM (inactive) | > 100 µM (inactive) | > 100 µM (inactive) | > 100 µM (inactive) | > 100 µM (inactive) | > 100 µM (inactive) | > 100 µM (inactive) | > 100 µM (inactive) | > 100 µM (inactive) | > 100 µM (inactive) | > 100 µM (inactive) | > 100 µM (inactive) | > 100 µM (inactive) | > 100 | > 100 µM (inactive) | > 100 µM (inactive) | > 100 µM (inactive) | > 100 µM (inactive) | > 100 µM (inactive)
6 | C/C(=N\NC(=[Se])N1CCN(c2ccccn2)CC1)c1ccccn1 | – | 0.0023 µM (active) | 0.01 µM (active) | 0.01 µM (active) | 0.297 µM (active) | 0.01 µM (active) | 0.01 µM (active) | 0.01 µM (active) | 0.01 µM (active) | 3.72 µM (inactive) | 0.00925 µM (active) | 0.036 µM (active) | 0.508 µM (active) | 10 µM (inactive) | 0.01 | 2.06 µM (inactive) | 4.15 µM (inactive) | 0.102 µM (active) | 0.238 µM (active) | 0.125 µM (active)
7 | CCOP(=O)(OCC)C(Cc1ccccc1)N=C(c1ccccc1)c1ccccc1 (stereo not given) | 9.95 µM (inactive) | 10.1 µM (inactive) | 13.9 µM (inactive) | 13.9 µM (inactive) | 20.6 µM (inactive) | 6.97 µM (inactive) | 13.1 µM (inactive) | 12.4 µM (inactive) | 16.3 µM (inactive) | 9.29 µM (inactive) | 13.3 µM (inactive) | 25.4 µM (inactive) | 13.6 µM (inactive) | 17 µM (inactive) | 12.1 | 13.2 µM (inactive) | 13.2 µM (inactive) | 15.3 µM (inactive) | 18.2 µM (inactive) | 12.4 µM (inactive)
8 | O=c1oc2ccccc2c(-c2ccc(O)cc2)c1Oc1ccc(Cl)cc1 | 21.4 µM (inactive) | 24.5 µM (inactive) | 4.88 µM (inactive) | 20.3 µM (inactive) | 18.2 µM (inactive) | 29.6 µM (inactive) | 20.1 µM (inactive) | 30.5 µM (inactive) | 25.8 µM (inactive) | 19.3 µM (inactive) | 22.3 µM (inactive) | 20.7 µM (inactive) | 19.8 µM (inactive) | 15.3 µM (inactive) | 30.1 | 30 µM (inactive) | 23.2 µM (inactive) | 17.1 µM (inactive) | 17.9 µM (inactive) | 16.9 µM (inactive)
9 | Cc1cc(C)c(C[C@H]2COC(=O)[C@]2(O)Cc2c(C)cc(C)cc2C)c(C)c1 | 31.7 µM (inactive) | 15.6 µM (inactive) | 18.1 µM (inactive) | – | 13.9 µM (inactive) | 4.67 µM (inactive) | 27.9 µM (inactive) | 20.9 µM (inactive) | 23.6 µM (inactive) | 15.7 µM (inactive) | 18.9 µM (inactive) | 25.2 µM (inactive) | 14.2 µM (inactive) | 24.7 µM (inactive) | 17.3 | 18.3 µM (inactive) | 18.4 µM (inactive) | 18.3 µM (inactive) | 23.1 µM (inactive) | 18.7 µM (inactive)
10 | O=C1CSC(c2cccs2)N1c1nc2cc3sc(N4C(=O)CSC4c4cccs4)nc3cc2s1 (stereo not given) | 25.2 µM (inactive) | 43.1 µM (inactive) | 15.9 µM (inactive) | 32.3 µM (inactive) | > 50 µM (inactive) | > 50 µM (inactive) | 11.9 µM (inactive) | 16.2 µM (inactive) | > 50 µM (inactive) | 4.23 µM (inactive) | 40.9 µM (inactive) | > 50 µM (inactive) | > 50 µM (inactive) | > 50 µM (inactive) | 33.4 | > 50 µM (inactive) | > 50 µM (inactive) | > 50 µM (inactive) | > 50 µM (inactive) | 13.2 µM (inactive)
11 | CC1(C)CC(=O)C2=C(C1)OC1(CC2c2ccc(Cl)cc2)CC(c2ccc(Cl)cc2)C2=C(CC(C)(C)CC2=O)O1 (stereo not given) | 15.5 µM (inactive) | > 38.5 µM (inactive) | 12 µM (inactive) | 12.5 µM (inactive) | 15.3 µM (inactive) | > 10 µM (inactive) | 28.2 µM (inactive) | 20.7 µM (inactive) | 24.7 µM (inactive) | 13.6 µM (inactive) | 22.5 µM (inactive) | 9.46 µM (inactive) | 3.52 µM (inactive) | 15.2 µM (inactive) | 9.62 | 8.53 µM (inactive) | 20.7 µM (inactive) | 23.1 µM (inactive) | 18.8 µM (inactive) | 11.3 µM (inactive)
12 | c1cc(CSP234N5CCN2CCN3CCN4CC5)cc(CSP234N5CCN2CCN3CCN4CC5)c1 | 16.5 µM (inactive) | 57.4 µM (inactive) | 25.8 µM (inactive) | 21.5 µM (inactive) | – | > 100 µM (inactive) | 19.1 µM (inactive) | 28.8 µM (inactive) | 18.6 µM (inactive) | 40.1 µM (inactive) | 21.9 µM (inactive) | 14.5 µM (inactive) | 21.5 µM (inactive) | 18.8 µM (inactive) | 22.3 | 22.6 µM (inactive) | 19.2 µM (inactive) | 18.6 µM (inactive) | 19.2 µM (inactive) | 16.9 µM (inactive)
13 | C[C@@H](CCO)OC1OC(COC(=O)C(C)(C)C)C(OC(=O)C(C)(C)C)C(OC(=O)C(C)(C)C)C1OC(=O)C(C)(C)C (stereo not given in full) | 33.7 µM (inactive) | > 100 µM (inactive) | 15.1 µM (inactive) | 28.2 µM (inactive) | – | > 100 µM (inactive) | 13.6 µM (inactive) | 51.1 µM (inactive) | 96.8 µM (inactive) | 14.1 µM (inactive) | 16.7 µM (inactive) | 15.5 µM (inactive) | 13.2 µM (inactive) | 21.9 µM (inactive) | 32.4 | 34.5 µM (inactive) | 73.5 µM (inactive) | 56.5 µM (inactive) | 43.6 µM (inactive) | 11.7 µM (inactive)
14 | Nc1nccc(NCC2(CO)CC(OCc3ccccc3)C2)n1 (stereo not given) | > 100 µM (inactive) | > 100 µM (inactive) | > 100 µM (inactive) | > 100 µM (inactive) | > 100 µM (inactive) | 7.98 µM (inactive) | > 100 µM (inactive) | > 100 µM (inactive) | > 100 µM (inactive) | > 100 µM (inactive) | > 100 µM (inactive) | > 100 µM (inactive) | 56.9 µM (inactive) | > 100 µM (inactive) | > 100 | > 100 µM (inactive) | > 100 µM (inactive) | – | > 100 µM (inactive) | 98.9 µM (inactive)
15 | Fc1ccc(C2NC(=S)NC3=C2CCOc2c3ccc3ccccc23)cc1 (stereo not given) | 54 µM (inactive) | 18.9 µM (inactive) | 15.7 µM (inactive) | 47.1 µM (inactive) | 17.4 µM (inactive) | 2.7 µM (inactive) | – | 39.1 µM (inactive) | > 100 µM (inactive) | 31.3 µM (inactive) | – | 19.8 µM (inactive) | > 100 µM (inactive) | – | 18.7 | 8.53 µM (inactive) | 58.1 µM (inactive) | 27.7 µM (inactive) | 79.6 µM (inactive) | 35 µM (inactive)
